Tests used:
[1] = system: C57BI/6J mice; test: Mouse food addiction operant protocol with prebiotics in drinking water; type: in vivo; conditions: for mice that achieved the addiction criteria (2-3 criteria, considered addicted): 1% in drinking water during whole protocol, 120 sessions, late period (95-112 sessions), n=12 per group, 41.67% of control mice addicted, χ^2=8.57 control vs lactulose, χ^2=12 control vs rhamnose, P<0.01; for persistence of response: compared to control group
Method: Mice were trained to obtain chocolate-flavored pellets (n=59) in operant boxes during 98 sessions in 1 h-daily self-administration sessions. The operant boxes and daily self-administration protocol of food addiction were accurately described in previous publications (Martín-García E, Domingo-Rodriguez L, Maldonado R. An Operant Conditioning Model Combined with a Chemogenetic Approach to Study the Neurobiology of Food Addiction in Mice. Bio-Protocol 2020;10:1-23. doi:10.21769/bioprotoc.3777; Domingo-Rodriguez L, Ruiz de Azua I, Dominguez E, et al. A specific prelimbic-nucleus accumbens pathway controls resilience versus vulnerability to food addiction. Nat Commun 2020;11:1-16. doi:10.1038/s41467-020-14458-y). Mice were under fixed-ratio 1 (FR1) during six sessions, followed by 92 sessions under FR5. The food addiction-like behavior was evaluated during this operant conditioning maintained by food at a late period (82-92 sessions) to classify mice into the addictive phenotype considering three food addiction-like criteria (1) persistence of response, (2) motivation, and (3) compulsivity. These criteria summarized the main features of the human food addiction diagnosis through the Yale Food Addiction Scale (YFAS 2.0) based on the 5th edition of the diagnostic and statistical manual of mental disorders (DSM-5) for substance use disorders. The three behavioral tests performed to evaluate these three addiction-like criteria (responding during the pellet-free period for the persistence of response, progressive ratio schedule for motivation, and shock-associated unconditioned stimulus for compulsivity) were performed as previously described (Mancino S, Burokas A, Gutiérrez-Cuesta J, et al. Epigenetic and Proteomic Expression Changes Promoted by Eating Addictive-Like Behavior. Neuropsychopharmacology 2015;40:2788-800. doi:10.1038/npp.2015.129). At the end of the late period, animals were categorized into two subpopulations, food-addicted or nonaddicted, depending on the number of addiction-like criteria achieved. Mice with two or three addiction-like criteria were considered addicted, and mice with 0 or 1 addiction-like criteria were considered nonaddicted.
Additionally, four additional phenotypic traits were also evaluated as factors of vulnerability, impulsivity, cognitive inflexibility, appetitive and aversive cue-reactivity. • Impulsivity, the inability to stop a response once it is initiated, was measured as the number of non-reinforced active responses during the time-out period (10 s) after each pellet delivery. This impulsivity-like behavior was delimited to the three consecutive days before the progressive ratio. • Cognitive inflexibility is the incapacity to shift responding to stimuli that have previously predicted the availability of reward. […] In the next 30 min, the cue light associated with pellet delivery during a typical operant training session was illuminated with no contingent pellet reinforcement. To signal the change in the schedule, the cue light was presented twice non-contingently and for 4 s. • Aversive cue-reactivity: To study the conditioning to an aversive stimulus (grid floor), non-reinforced active responses during the following session after the shock test were measured. Mice were placed in the operant box for one hour with the same grid floor used during the shock test. However, during this session, pressing the active lever had no consequences: no shock, no chocolate-flavored pellets, and no cue light.
Mice (n=36) were trained in the same experimental conditions previously described to obtain chocolate flavored pellets during 120 sessions of a 1h-daily self-administration protocol. The duration of training was enhanced in this experiment in order to allow a longer exposure to the prebiotics that could facilitate their effects to modify the behavioral responses. Mice were trained for six days at FR1, followed by 114 FR5 sessions. […]

[2] = system: Blautia; test: Quantitative PCR of Blautia in mouse feces after prebiotic treatment; type: in vivo; conditions: 1% in drinking water, feces collected at end of protocol, qPCR, vs control
Method: At the end of the protocol, feces were collected to quantify Blautia abundance in the gut by quantitative PCR. DNA was extracted from 0.18-0.2g of feces using QIAamp® Fast DNA Stool Mini kit (Qiagen, Germany) and was stored at -20°C.
To quantify the Blautia in the feces, primers g-Blau-R (5'-[…]-3') SEQ ID No 3 and g-Blau-F (5'- […]- 3'), targeting SEQ ID No 4 16S rRNA gene, were used, as previously described. Each reaction mixture (10 µl) comprises LightCycler 480 SYBR Green I Master (Roche Life Science, Germany) and 1ng/µl of genomic DNA. The amplification program consisted of one cycle at 95°C for 10 min, followed by 40 cycles at 94°C for 20 s, 55°C for 20 s, and 60°C for 40 s. The fluorescent products were detected in the last step of each cycle. qPCR amplification and detection were performed in 384-well optical plates with an QuantStudio 12K Flex Real-Time PCR System (Applied Biosystems). A melting curve analysis was performed at the end of the experiment to determine the specificity of an assay. The melting program consisted of the first step of 95°C for 15 s, the second step of 60°C for 1 min, and the last dissociation step of 95°C for 15 s. […]
A qPCR was performed to confirm the effectiveness of targeted prebiotics in increasing Blautia genus abundance in the gut. Based on the generated standard curve, the amount of Blautia per gram of feces was determined. […]

[3] = system: Blautia; conditions: Reichardt et al. 2018 (rhamnose); Cui et al. 2021 (lactulose); cited from earlier work
[4] = 1% in drinking water, late period

Structure (SMILES)	mice that achieved the addiction criteria (2-3 criteria, considered addicted) [1]	cognitive inflexibility ([1]; 1% in drinking water, late period, compared to control (U=35.50, P<0.05) and lactulose (U=17.00, P<0.001))	persistence of response [1, 4]	compulsivity in seeking for palatable food ([1]; 1% in drinking water, late period, compared to control mice, Mann-Whitney's U=31.50, P<0.01)	motivation for chocolate-flavored pellets ([1]; 1% in drinking water, late period, rhamnose compared to lactulose, Mann-Whitney's U=31.50, P<0.05)	Blautia abundance in the gut (amount of Blautia per gram of feces) [2]	amount of Blautia in mice feaces [3]
C[C@@H]1OC(O)[C@H](O)[C@H](O)[C@H]1O (stereo partly drawn) [rhamnose, (3R,4R,5R,6S)-6-methyloxane-2,3,4,5-tetrol]	none	lower	similar	decreased	reduced	significantly increased	increases
OC[C@H]1O[C@@H](O[C@@H]2[C@@H](CO)OC(O)(CO)[C@H]2O)[C@H](O)[C@@H](O)[C@H]1O (stereo partly drawn) [lactulose, 4-O-β-D-galactopyranosyl-D-fructofuranose, reference compound]	none		similar			non-significant trend to enhance	increases

Reference: patent publication EP4559466A1, “MICROBIOTA SIGNATURE TO DETECT FOOD ADDICTION AND TREATMENT THEREOF” (Universitat Pompeu Fabra (UPF), priority 2023, dated 2025)
